According to ChEMBL document CHEMBL3351913, “Malonate-based inhibitors of mammalian serine racemase: kinetic characterization and structure-based computational study” (Eur J Med Chem, 2015):

biological target: T1, Serine racemase (Mus musculus, UniProt Q9QZX7); assay: Inhibition of mouse serine racemase using L-serine substrate by reversed-phase HPLC analysis
T1 sequence (Q9QZX7 whole entry): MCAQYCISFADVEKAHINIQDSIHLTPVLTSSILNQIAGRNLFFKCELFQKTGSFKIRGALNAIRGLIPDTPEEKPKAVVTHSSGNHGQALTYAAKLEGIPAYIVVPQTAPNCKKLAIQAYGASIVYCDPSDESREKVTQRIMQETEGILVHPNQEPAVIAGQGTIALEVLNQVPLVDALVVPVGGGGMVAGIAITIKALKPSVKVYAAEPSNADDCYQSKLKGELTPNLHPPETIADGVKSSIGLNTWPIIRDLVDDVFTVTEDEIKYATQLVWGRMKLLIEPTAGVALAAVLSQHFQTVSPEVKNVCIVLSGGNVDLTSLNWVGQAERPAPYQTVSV

IC50	SMILES
94 µM	O=C(O)C(O)C(=O)O
400 µM	NC(C(=O)O)C(=O)O
2160 µM	O=C(O)C(F)(F)C(=O)O
5630 µM	CC(C)(C(=O)O)C(=O)O
7030 µM	O=C(O)C(C(=O)O)c1ccsc1
40600 µM	O=C(O)C(CO)(CO)C(=O)O
67 µM	O=C(O)CC(=O)O [MALONIC ACID]

SMILES	IC50
O=C(O)C(Cl)(Cl)C(=O)O	57 µM
O=C(O)C(Cl)C(=O)O	780 µM
CC(C(=O)O)C(=O)O [METHYLMALONIC ACID]	1850 µM

biological target: T1, Serine racemase; assay: Inhibition of mouse serine racemase by Lineweaver-Burk plot

SMILES	Ki
O=C(O)C(Cl)(Cl)C(=O)O	19 µM
O=C(O)CC(=O)O [MALONIC ACID]	27 µM
